Measured values taken from paper doi:10.1101/2024.07.04.602053v1, “Evidence for low affinity of GABA at the vesicular monoamine transporter VMAT2 – implications for transmitter co-release from dopamine neurons” (biorxiv, 2024).

Target: T1, human VMAT2-eGFP (HEK-293-VMAT2:eGFP) (Homo sapiens, UniProt Q05940)
T1 construct: gene SLC18A2
Test: inhibition of [3H]dopamine uptake, digitonin-permeabilized cells
Format: cell-based

T1 sequence (Q05940 whole entry): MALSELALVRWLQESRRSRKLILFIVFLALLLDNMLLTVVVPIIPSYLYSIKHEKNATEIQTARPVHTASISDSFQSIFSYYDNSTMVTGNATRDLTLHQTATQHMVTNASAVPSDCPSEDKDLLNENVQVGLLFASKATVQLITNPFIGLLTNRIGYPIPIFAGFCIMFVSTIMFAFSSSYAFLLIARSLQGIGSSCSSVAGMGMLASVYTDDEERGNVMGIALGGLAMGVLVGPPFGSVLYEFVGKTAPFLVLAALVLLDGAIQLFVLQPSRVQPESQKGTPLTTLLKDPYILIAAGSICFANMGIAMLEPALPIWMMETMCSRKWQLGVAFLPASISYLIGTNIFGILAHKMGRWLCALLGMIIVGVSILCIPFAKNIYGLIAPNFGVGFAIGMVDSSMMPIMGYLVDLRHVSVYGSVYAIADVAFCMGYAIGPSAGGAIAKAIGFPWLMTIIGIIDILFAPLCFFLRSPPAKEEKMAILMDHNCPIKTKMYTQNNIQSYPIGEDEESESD

Row | SMILES | IC50
1 | COc1cc2c(cc1OC)C1CC(=O)C(CC(C)C)CN1CC2 (centres unmarked) [tetrabenazine] | 0.0288 µM
2 | NCCc1ccc(O)c(O)c1 [dopamine] | 4.9 µM
